Experimental data from patent US6150335A, “Tic-containing opioid dipeptide derivatives useful as analgesics” (Astra AB, priority 1996, dated 2000).

Key:
[1] = test system: mouse vas deferens (MVD); assay: Mouse vas deferens (MVD) bioassay: inhibition of electrically evoked contractions; type: cell-based; settings: for IC50: inhibition of electrically evoked contractions, normalized with [Leu5]enkephalin standard, effect mostly δ-mediated; for GPI/MVD IC50 ratio: ratio of GPI IC50 to MVD IC50
Protocol: (§1) Bioassays based on inhibition of electrically evoked contractions of the mouse vas deferens (MVD) and of the guinea pig ileum (GPI) were performed. In the GPI assay the opioid effect is primarily mediated by μ opioid receptors, whereas in the MVD assay the inhibition of the contractions is mostly due to interaction with δ opioid receptors.
(§2) The GPI and MVD bioassays were carried out as reported in P. W. Schiller et al., Biochem. Biophys. Res. Commun. 85, 1332-1338 (1978) and J. DiMaio et al., J. Med. Chem. 25, 1432-1438 (1982). A log-dose response curve was determined with [Leu^5 ]enkephalin as standard for each ileum and vas preparation, and IC50 values of the compounds being tested were normalized according to A. A. Waterfield et al., Eur. J. Pharmacol. 58, 11-18 (1979).

[2] = target: T1, δ opioid receptor (Rattus norvegicus, UniProt P33533); assay: δ opioid receptor binding assay, displacement of [3H]DSLET from rat brain membranes; settings: for Ki: rat brain membranes, [3H]DSLET 1.0 nM, Cheng-Prusoff; for Ki^μ/Ki^δ: δ versus μ receptor selectivity
T1 construct: Male Sprague-Dawley rats (300-350 g) from the Canadian Breeding Laboratories were decapitated and after removal of the cerebellum the brains were homogenized; from tissue; host or cells: rat brain (without cerebellum) membranes, male Sprague-Dawley
T1 sequence (P33533 whole entry): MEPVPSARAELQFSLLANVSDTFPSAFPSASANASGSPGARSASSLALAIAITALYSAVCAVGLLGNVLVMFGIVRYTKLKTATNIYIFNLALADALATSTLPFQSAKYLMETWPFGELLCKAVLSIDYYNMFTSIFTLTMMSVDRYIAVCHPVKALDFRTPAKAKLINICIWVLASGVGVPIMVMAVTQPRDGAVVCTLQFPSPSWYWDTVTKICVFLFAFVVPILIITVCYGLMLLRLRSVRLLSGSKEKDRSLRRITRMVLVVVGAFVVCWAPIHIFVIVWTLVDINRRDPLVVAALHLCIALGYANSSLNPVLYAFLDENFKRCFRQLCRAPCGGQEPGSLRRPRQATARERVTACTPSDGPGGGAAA
Protocol: (§3) μ and δ opioid receptor binding constants (Ki^μ,Ki^δ) of the compounds were determrined by displacement of relatively selective μ and δ radioligands from binding sites in rat brain membrane preparations calculated from the measured IC50 values on the basis of the equation by Cheng and Prusoff, (Y. C. Cheng and W. H. Prusoff Biochem. Pharmnacol. 22, 3099-3102 (1973)).
The μ-, δ- and κ-opioid receptor affinities of all new analogs were determined in binding assays based on displacement of μ-, δ- and κ-selective radioligands from rat brain membrane binding sites. In the case of κ-ligands guinea pig brain homogenates were used, since the relative proportion of κ-binding sites is higher in guinea pig brain than in rat brain. The experimental procedure being used in our laboratory represents a modified version of the binding assay described by Pasternak et al. (Mol. Pharnacol. 11, 340-351 (1975)). Male Sprague-Dawley rats (300-350 g) from the Canadian Breeding Laboratories were decapitated and after removal of the cerebellum the brains were homogenized in 30 volumes of ice-cold standard buffer (50 mnM Tris HCl , pH 7.7). After centrifugation at 30,000×g for 30 min at 4° C. the membranes were reconstituted in the original volume of standard buffer and incubated for 30 min at 37° C. (to release bound endogenous ligands). Subsequent centrifugation and resuspension of the pellet in the initial volume of fresh standard buffer yielded the final membrane suspension. Aliquots (2 ml) of the membrane preparations were incubated for 1-2 h at 25° C. with 1 ml standard buffer containing the peptide to be tested and one of the following radioligands at the final concentration indicated: [^3 H]DAMGO, μ-selective, 0.7 nM; […]; and [^3 H]U69,563, κ-selective, 0.5 nM. The incubation was terminated by filtration through Whatman GF/B filters under vacuum at 4° C. Following two washings with 5 ml portions of ice-cold standard buffer the filters were transferred to scintillation vials and treated with 1 ml Protosol (New England Nuclear) for 30 min prior to addition of 0.5 ml acetic acid and 10 ml Aquasol (New England Nuclear). After shaking for 30 min the vials were counted at an efficiency of 40-45%. All experiments were performed in duplicate and repeated at least three times. Specific binding of each of the three radioligands was defined by performing incubations in the presence of cold DAMGO, DSLET and U69,563, respectively, at a concentration of 1 micromolar. Values of half-maximal inhibition (IC50) of specific binding were obtained graphically from semilogarithmic plots. From the measured IC50-values, binding inhibition constants (Ki) were calculated based on Cheng and Prusoff's equation (Biochem. Pharmacol. 22, 3099-3102 (1973)). Ratios of the Ki -values determined in the μ-, δ- and κ-representative binding assays are a measure of the receptor selectivity of the compound under investigation (e.g. Ki^μ /Ki^μ indicates the selectivity for δ-receptors versus μ-receptors).

[3] = target: T2, μ opioid receptor (Rattus norvegicus, UniProt P33535); assay: μ opioid receptor binding assay, displacement of [3H]DAMGO from rat brain membranes; settings: [3H]DAMGO 0.7 nM, Cheng-Prusoff
T2 construct: Male Sprague-Dawley rats (300-350 g) from the Canadian Breeding Laboratories were decapitated and after removal of the cerebellum the brains were homogenized; from tissue; host or cells: rat brain (without cerebellum) membranes, male Sprague-Dawley
T2 sequence (P33535 whole entry): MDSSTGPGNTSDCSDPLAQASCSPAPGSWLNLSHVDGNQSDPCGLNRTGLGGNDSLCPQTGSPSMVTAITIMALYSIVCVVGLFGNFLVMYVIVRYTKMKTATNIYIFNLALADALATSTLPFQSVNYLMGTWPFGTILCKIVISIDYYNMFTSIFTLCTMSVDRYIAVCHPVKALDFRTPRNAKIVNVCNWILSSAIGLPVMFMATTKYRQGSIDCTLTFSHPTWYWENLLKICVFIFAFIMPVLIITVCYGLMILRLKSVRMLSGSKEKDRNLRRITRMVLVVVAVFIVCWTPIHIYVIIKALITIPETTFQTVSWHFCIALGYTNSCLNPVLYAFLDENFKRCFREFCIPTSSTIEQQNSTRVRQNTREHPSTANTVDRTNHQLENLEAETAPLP
Protocol: as §3
The μ-, δ- and κ-opioid receptor affinities of all new analogs were determined in binding assays based on displacement of μ-, δ- and κ-selective radioligands from rat brain membrane binding sites. In the case of κ-ligands guinea pig brain homogenates were used, since the relative proportion of κ-binding sites is higher in guinea pig brain than in rat brain. The experimental procedure being used in our laboratory represents a modified version of the binding assay described by Pasternak et al. (Mol. Pharnacol. 11, 340-351 (1975)). Male Sprague-Dawley rats (300-350 g) from the Canadian Breeding Laboratories were decapitated and after removal of the cerebellum the brains were homogenized in 30 volumes of ice-cold standard buffer (50 mnM Tris HCl , pH 7.7). After centrifugation at 30,000×g for 30 min at 4° C. the membranes were reconstituted in the original volume of standard buffer and incubated for 30 min at 37° C. (to release bound endogenous ligands). Subsequent centrifugation and resuspension of the pellet in the initial volume of fresh standard buffer yielded the final membrane suspension. Aliquots (2 ml) of the membrane preparations were incubated for 1-2 h at 25° C. with 1 ml standard buffer containing the peptide to be tested and one of the following radioligands at the final concentration indicated: [^3 H]DAMGO, μ-selective, 0.7 nM; [^3 H]DSLET, […] nM; and [^3 H]U69,563, κ-selective, 0.5 nM. The incubation was terminated by filtration through Whatman GF/B filters under vacuum at 4° C. Following two washings with 5 ml portions of ice-cold standard buffer the filters were transferred to scintillation vials and treated with 1 ml Protosol (New England Nuclear) for 30 min prior to addition of 0.5 ml acetic acid and 10 ml Aquasol (New England Nuclear). After shaking for 30 min the vials were counted at an efficiency of 40-45%. All experiments were performed in duplicate and repeated at least three times. Specific binding of each of the three radioligands was defined by performing incubations in the presence of cold DAMGO, DSLET and U69,563, respectively, at a concentration of 1 micromolar. Values of half-maximal inhibition (IC50) of specific binding were obtained graphically from semilogarithmic plots. From the measured IC50-values, binding inhibition constants (Ki) were calculated based on Cheng and Prusoff's equation (Biochem. Pharmacol. 22, 3099-3102 (1973)). Ratios of the Ki -values determined in the μ-, δ- and κ-representative binding assays are a measure of the receptor selectivity of the compound under investigation (e.g. Ki^μ /Ki^μ indicates the selectivity for δ-receptors versus μ-receptors).

[4] = test system: guinea pig ileum (GPI); assay: Guinea pig ileum (GPI) bioassay: inhibition of electrically evoked contractions; type: cell-based; settings: normalized with [Leu5]enkephalin standard, effect primarily μ-mediated
Protocol: as §1, §2

SMILES | IC50 [1] [nM] | GPI/MVD IC50 ratio [1] | Ki [2] [nM] | Ki^μ/Ki^δ [2] | Ki [3] [nM] | IC50 [4] [nM] | GPI IC50 [4]
CCOC(=O)C(CNC(=O)[C@@H]1Cc2ccccc2CN1C(=O)[C@@H](N)Cc1ccc(O)cc1C)c1ccccc1 (single isomer, unassigned) [Example 30] | 1.62 ± 0.12 | 510 | 1.63 ± 0.27 | 101 | 164 ± 11 | 826 ± 183 | –
CCOC(=O)C(CNC(=O)[C@@H]1Cc2ccccc2CN1C(=O)[C@@H](N)Cc1ccc(O)cc1C)c1ccccc1 (single isomer, unassigned) [Example 31] | 2.24 ± 0.33 | 388 | 1.22 ± 0.04 | 65.3 | 79.7 ± 2.3 | 869 ± 209 | –
NC(Cc1ccc(O)cc1)C(=O)N1Cc2ccccc2CC1C(=O)NCC(c1ccccc1)c1ccccc1 (stereo not drawn) [Example 1, H-Tyr-Tic-NH--CH2 --CH--(Ph)2] | 3.77 ± 1.05 | 963 | 0.981 ± 0.038 | 29.4 | 28.8 ± 4.2 | 3630 ± 470 | –
N[C@@H](Cc1ccc(O)cc1)C(=O)N1Cc2ccccc2C[C@H]1C(=O)NCCc1ccccc1Br [Example 5] | 13.9 ± 1.9 | 44.1 | 1.24 ± 0.27 | 18.8 | 23.3 ± 7.7 | 613 ± 26 | –
Cc1ccccc1CCNC(=O)[C@@H]1Cc2ccccc2CN1C(=O)[C@@H](N)Cc1ccc(O)cc1 [Example 6] | 10.1 ± 1.2 | 75.1 | 1.75 ± 0.1 | 22.1 | 38.7 ± 8.9 | 759 ± 152 | –
N[C@@H](Cc1ccc(O)cc1)C(=O)N1Cc2ccccc2C[C@H]1C(=O)NCCc1ccccc1-c1ccccc1 [Example 7] | 418 ± 55 | > 23.9 | 4.76 ± 1.7 | 15.4 | 73.5 ± 7.1 | > 10000 | –
N[C@@H](Cc1ccc(O)cc1)C(=O)N1Cc2ccccc2C[C@H]1C(=O)N[C@H]1CCc2ccccc2C1 [Example 19, H-Tyr-Tic-2-S-At (At = aminotetralin)] | 38.1 | 44.9 | 4.55 | 12.3 | 55.8 ± 6.3 | 1710 ± 230 | –
N[C@@H](Cc1ccc(O)cc1)C(=O)N1Cc2ccccc2C[C@H]1C(=O)N[C@@H]1CCc2ccccc2C1 [Example 20, H-Tyr-Tic-2-R-At (At = aminotetralin)] | 36.3 ± 3.58 | – | 1.72 ± 0.17 | 15.3 | 26.3 ± 2.3 | – | partial
N[C@@H](Cc1ccc(O)cc1)C(=O)N1Cc2ccccc2C[C@H]1C(=O)NCC(C1CCCCC1)C1CCCCC1 [Example 23] | 21.5 ± 6.8 | 73.5 | 11.3 ± 3.3 | 4.64 | 52.4 ± 2.5 | 1580 ± 610 | –
